Consider one compound from patent US20090263356A1, “ANTI-ANGIOGENIC COMPOSITION COMPRISING GRAIN-DERIVED COMPONENT AS ACTIVE INGREDIENT” (SANWA SHURUI CO., LTD., priority 2005, published 2009).

Assay [1] relates to Human vascular endothelial cells and fibroblasts (co-culture). In words: Experiment on vascularization inhibition (luminal formation), Experiments 1 and 4. The format is cell-based. The settings on record: suramin 25 μM final, VEGF-A 5 ng/ml, 11-day culturing; for AREA (area of vascular tube region): smaller = larger inhibition. On the procedure: 1,000 μg of each specimen was weighed and dissolved in 1 ml of a culture medium. The resulting culture medium was sterilized by filtration (0.22 μm), diluted 10 fold (three times), to prepare samples at concentrations of 10 μg/ml to 1,000 μg/ml as shown in Table 1 (the contents of the test samples for use in assessing the effect on inhibiting vascularization).
Human vascular endothelial cells and fibroblasts were co-cultured at their optimal concentrations. At the proliferation state at an early stage of luminal formation, the individual samples (1-1-1, the negative controls, the positive controls) were added for 11-day culturing (the culture media containing the samples were exchanged 4, 7 and 9 days later). […] So as to evaluate the effect on inhibiting vascularization, the formed lumen-like network structure was observed.
Photographs of the vascular tube tissues were incorporated as digital data, to measure the area of a vascular tube region (black region) at several points randomly selected to determine the effect on inhibiting vascularization.
VEGF-A as a vascularization-promoting factor was added at an amount of 5 ng/ml (as the final concentration) Suramin as a positive control with an observed effect on inhibiting vascularization was added at an amount of 25 μM (as the final concentration)
1,000 μg of each specimen was weighed and dissolved in 1 ml of a culture medium. The resulting culture medium was sterilized by filtration (0.22 μm), diluted 10 fold (three times), to prepare samples at concentrations of 10 μg/ml to 1,000 μg/ml as shown in Table 4 (the contents of test samples for assessing vascularization inhibitory effect).
Human vascular endothelial cells and fibroblasts were co-cultured at their optimal concentrations. At the proliferation state at an early stage of luminal formation, the individual samples (1-1-1, the negative controls, the positive controls) were added for 11-day culturing (the culture media containing the samples were exchanged 4, 7 and 9 days later). […] Regarding the effect on inhibiting vascularization, the formed lumen-like network structure was evaluated.
Photographs of blood tube tissues were incorporated as digital data, to measure the area of the blood tube region (black part) at several positions randomly selected, to determine the inhibitory effect of vascularization.

Assay [2] shares this test system. In words: Experiment on vascularization inhibition (lumen formation, KURABO kit), Experiments 2 and 5. Format: cell-based. Conditions: Suramin 50 μM final, VEGF-A 5 ng/ml, 11-day culturing. On the procedure:
1,000 μg of each specimen was weighed and dissolved in 1 ml of a culture medium. The resulting culture medium was sterilized by filtration (0.22 μm), diluted 10 fold (three times), to prepare samples at concentrations of 10 μg/ml to 1,000 μg/ml.
Human vascular endothelial cells and fibroblasts were co-cultured at their optimal concentrations. At the proliferation state at an early stage of luminal formation, the individual samples were added for 11-day culturing (the culture media containing the samples were exchanged 4, 7 and 9 days later). […] As standards for the evaluation, VEGF-A promoting luminal formation was added at […], while suramin inhibiting luminal formation was added at 50 μM, in the same manner. A control was prepared without any addition. Regarding the effect on inhibiting vascularization, the formed lumen-like network structure was evaluated.
Method: A kit manufactured by KURABO was used for measurement. […] VEGF as a vascularization promoting factor and suramin as an agent for suppressing vascularization were concurrently present in a control, so as to compare the lumen formation state in the co-existence of VEGF and each sample.
Concentration of a sample added: 10, 100 and 1,000 μg/ml (Suramin was added in all of the cases at the same concentration; 50 μM)
VEGF-A as a vascularization-promoting factor was added at an amount of 5 ng/ml (as the final concentration) Suramin as a positive control with an observed effect on inhibiting vascularization was added at an amount of 50 μM (as the final concentration)
1,000 μg of each specimen was weighed and dissolved in 1 ml of a culture medium. The resulting culture medium was sterilized by filtration (0.22 μm) and diluted 10 fold (three times), to prepare samples at concentrations of 10 μg/ml to 1,000 μg/ml.
Concentration of a sample added: 10, 100 and 1000 μg/ml (Suramin was added in all of the cases at the same concentration; 50 μM)

For `Cc1ccc(C(=O)Nc2ccc(S(=O)(=O)O)c3cc(S(=O)(=O)O)cc(S(=O)(=O)O)c23)cc1NC(=O)c1cccc(NC(=O)Nc2cccc(C(=O)Nc3cc(C(=O)Nc4ccc(S(=O)(=O)O)c5cc(S(=O)(=O)O)cc(S(=O)(=O)O)c45)ccc3C)c2)c1` [Suramin, suramin], in assay [1] (listed as A3), the JOINT is reported as 11, the LENGTH came to 4583, the PATH was 107 and the “AREA (area of vascular tube region)” value is reported as 27940. For the same compound, in assay [1] (listed as A4), the JOINT amounted to 16, the LENGTH was 5311, the PATH is reported as 128 and the “AREA (area of vascular tube region)” value stood at 33301. In assay [2], this compound yielded an AREA of 30401, a JOINT of 413 and an LENGTH of 6396.
